Consider 59 compounds from the C3SDB collision cross section collection.

For data set [1] the following is noted: [M+H]+; instrument: TW; Major Mix IMS/Tof Calibration Kit (Waters).
The conditions of data set [2]: instrument: DT, single field, calibrated with Agilent tune mix (Agilent).
The conditions of data set [3]: instrument: DT, stepped-field.

For the compound `COc1cc(CCN)c(OC)cc1Br` [2C-B], the “collision cross section (N2)” value in data set [1] was found to be 155.6 Å².

For `COc1cc(CCNCc2ccccc2OC)c(OC)cc1Cl` [25C-NBOMe], the “collision cross section (N2)” value in data set [1] is reported as 177.6 Å².

With `CCCC(=O)Nc1ccc(OCC(O)CNC(C)C)c(C(C)=O)c1` (stereo not given) [Acebutolol], the “collision cross section (N2)” value in data set [1] was found to be 190.2 Å².

`CC(=O)c1ccc2c(c1)N(CCCN(C)C)c1ccccc1S2` [Acepromazine]: in data set [1], the “collision cross section (N2)” value is 176.6 Å².

Take `Cc1nnc2n1-c1ccc(Cl)cc1C(c1ccccc1)=NC2` [Alprazolam]: the “collision cross section (N2)” value in data set [1] was determined as 171.5 Å².

Take `CCN(CC)C(C)C(=O)c1ccccc1` (stereo not given) [Amfepramone]: the “collision cross section (N2)” value in data set [1] was 148 Å².

In the case of `CCN1CCCC1CNC(=O)c1cc(S(=O)(=O)CC)c(N)cc1OC` (stereo not given) [Amisulpride], in data set [1], the “collision cross section (N2)” value came out at 193.1 Å².

Regarding `CC(C)NCC(O)COc1ccc(CC(N)=O)cc1` (stereo not given) [Atenolol], in data set [1], the “collision cross section (N2)” value was found to be 159.5 Å².

For `CN1[C@@H]2CC[C@H]1C[C@@H](OC(=O)C(CO)c1ccccc1)C2` (stereo not given in full) [Atropine], the “collision cross section (N2)” value in data set [1] is 171.5 Å².

Take `CCOC(=O)c1ccc(N)cc1` [Benzocaine]: in data set [1], the “collision cross section (N2)” value amounted to 148.2 Å².

On to `CN1[C@H]2CC[C@@H]1[C@@H](C(=O)O)[C@@H](OC(=O)c1ccccc1)C2` [Benzoylecgonine], for which the “collision cross section (N2)” value in data set [1] is 167.3 Å².

Take `CCCCN1CCCCC1C(=O)Nc1c(C)cccc1C` (stereo not given) [Bupivacaine]: the “collision cross section (N2)” value in data set [1] worked out at 173.1 Å².

For `CC(NC(C)(C)C)C(=O)c1cccc(Cl)c1` (stereo not given) [Bupropion], in data set [1], the “collision cross section (N2)” value was determined as 157.8 Å².

As for `O=C1CC2(CCCC2)CC(=O)N1CCCCN1CCN(c2ncccn2)CC1` [Buspirone], in data set [1], the “collision cross section (N2)” value worked out at 199.3 Å².

Take `Cn1c(=O)c2c(ncn2C)n(C)c1=O` [Caffeine]: in data set [1], the “collision cross section (N2)” value turned out to be 138.3 Å².

On to `C[C@H](CS)C(=O)N1CCC[C@H]1C(=O)O` [Captopril], for which the “collision cross section (N2)” value in data set [1] is reported as 142.5 Å².

`NC(=O)N1c2ccccc2C=Cc2ccccc21` [Carbamazepine]: the “collision cross section (N2)” value in data set [1] is reported as 150.3 Å².

On to `COc1ccccc1OCCNCC(O)COc1cccc2[nH]c3ccccc3c12` (stereo not given) [Carvedilol], for which, in data set [1], the “collision cross section (N2)” value is given as 190 Å².

Regarding `Cc1ccc(-c2cc(C(F)(F)F)nn2-c2ccc(S(N)(=O)=O)cc2)cc1` [Celecoxib], the “collision cross section (N2)” value in data set [1] was determined as 186.4 Å².

As to `OCCN1CCN(C(c2ccccc2)c2ccc(Cl)cc2)CC1` (stereo not given) [Cetirizine-M O-desalkyl], in data set [1], the “collision cross section (N2)” value was determined as 186.2 Å².

Consider `CNC1=Nc2ccc(Cl)cc2C(c2ccccc2)=[N+]([O-])C1` [Chlordiazepoxide], for which the “collision cross section (N2)” value in data set [1] came out at 170.4 Å².

Regarding `CN(C)CCC(c1ccc(Cl)cc1)c1ccccn1` (stereo not given) [Chlorphenamine], the “collision cross section (N2)” value in data set [1] is given as 164.5 Å².

On to `CNCCCN1c2ccccc2Sc2ccc(Cl)cc21` [Chlorpromazine-M norl], for which the “collision cross section (N2)” value in data set [1] was 168.7 Å².

Take `CNCC/C=C1/c2ccccc2Sc2ccc(Cl)cc21` [Chlorprothixene-M N-desmethyl]: in data set [1], the “collision cross section (N2)” value is 165.9 Å².

Turning to `CN/C(=N\C#N)NCCSCc1nc[nH]c1C` [Cimetidine], the “collision cross section (N2)” value in data set [1] came to 156.5 Å².

On to `CN(C)CCCC1(c2ccc(F)cc2)OCc2cc(C#N)ccc21` (stereo not given) [Citalopram], for which the “collision cross section (N2)” value in data set [1] worked out at 180.1 Å².

Regarding `CC(C)(C)NCC(O)c1cc(Cl)c(N)c(Cl)c1` (stereo not given) [Clenbuterol], the “collision cross section (N2)” value in data set [1] came out at 165.6 Å².

As to `O=C1CN=C(c2ccccc2Cl)c2cc([N+](=O)[O-])ccc2N1` [Clonazepam], the “collision cross section (N2)” value in data set [1] is given as 168.2 Å².

Take `CN1CCN(C2=Nc3cc(Cl)ccc3Nc3ccccc32)CC1` [Clozapine]: in data set [1], the “collision cross section (N2)” value came to 178.8 Å².

Regarding `CCOC(=O)[C@H]1[C@@H](OC(=O)c2ccccc2)C[C@@H]2CC[C@H]1N2C` [Cocaine-M Cocaethylene], the “collision cross section (N2)” value in data set [1] is recorded as 173.5 Å².

`CN1CCN(C(c2ccccc2)c2ccccc2)CC1` [Cyclizine]: the “collision cross section (N2)” value in data set [1] amounted to 166.7 Å².

In the case of `CN(C)CCC=C1c2ccccc2C=Cc2ccccc21` [Cyclobenzaprine], the “collision cross section (N2)” value in data set [1] is 164.7 Å².

Consider `COc1ccc2c(c1)[C@]13CCCC[C@@H]1[C@H](C2)N(C)CC3` [Dextromethorphan], for which the “collision cross section (N2)” value in data set [1] worked out at 166.3 Å².

In the case of `CCC(=O)O[C@](Cc1ccccc1)(c1ccccc1)[C@H](C)CN(C)C` [Dextropropoxyphene], the “collision cross section (N2)” value in data set [1] turned out to be 180.7 Å².

On to `O=C(O)Cc1ccccc1Nc1c(Cl)cccc1Cl` [Diclofenac], for which the “collision cross section (N2)” value in data set [1] is given as 157.7 Å².

Consider `CN1CC[C@]23c4c5ccc(O)c4O[C@H]2[C@@H](O)CC[C@H]3[C@H]1C5` [Dihydromorphine], for which, in data set [1], the “collision cross section (N2)” value came out at 163.6 Å².

`COc1ccc([C@@H]2Sc3ccccc3N(CCN(C)C)C(=O)[C@@H]2O)cc1` [Diltiazem-M deacetyl]: the “collision cross section (N2)” value in data set [1] was 186.3 Å².

For `CNC(=O)CSP(=S)(OC)OC` [Dimethoate], the “collision cross section (N2)” value in data set [1] came to 139.9 Å².

As for `OCCN(CCO)c1nc(N2CCCCC2)c2nc(N(CCO)CCO)nc(N3CCCCC3)c2n1` [Dipyridamole], the “collision cross section (N2)” value in data set [1] amounted to 227.5 Å².

For the compound `CC(CN1CCN(CCOCCO)CC1)CN1c2ccccc2Sc2ccccc21` (stereo not given) [Dixyrazine], the “collision cross section (N2)” value in data set [1] was 201 Å².

On to `COc1cc2c(cc1OC)C(=O)C(CC1CCN(Cc3ccccc3)CC1)C2` (stereo not given) [Donepezil], for which the “collision cross section (N2)” value in data set [1] was 198.1 Å².

Consider `CN(C)CCC=C1c2ccccc2CSc2ccccc21` [Dosulepin], for which the “collision cross section (N2)” value in data set [1] is 167.3 Å².

On to `COc1cc2nc(N3CCN(C(=O)C4COc5ccccc5O4)CC3)nc(N)c2cc1OC` (stereo not given) [Doxazosin], for which, in data set [1], the “collision cross section (N2)” value is 202.9 Å².

On to `CCCCCC/C=C\CCCCCCCCC(=O)OC[C@@H](O)COP(=O)([O-])OCC[N+](C)(C)C` [LPC(17:1)], for which the “collision cross section (N2)” value in data set [2] ([M+H]+) is given as 228.4 Å².

With `CCCCCCCCCCCCCCCCCCCC(=O)OC[C@@H](O)COP(=O)([O-])OCC[N+](C)(C)C` [LPC(20:0)], the figures for the “collision cross section (N2)” value in data set [2] ([M+H]+), in data set [3] ([M+H]+) and in data set [3] ([M+Na]+) were 243.9 Å², 248.6 Å² and 251.13 Å², respectively.

For the compound `CCCCCCCCCCCCCCCCCC(=O)OC[C@@H](O)COP(=O)(O)OC[C@H](N)C(=O)O` [LPS(18:0)], the “collision cross section (N2)” value in data set [2] ([M+H]+) amounted to 228.3 Å²; in data set [2] ([M+Na]+), 232.1 Å².

As for `CCCCCC/C=C\CCCCCCCC/C=C\OC[C@H](COP(=O)([O-])OCC[N+](C)(C)C)OC(=O)CCCCCCC/C=C\CCCCCC` [PC(p34:2)], in data set [2] ([M+H]+), the “collision cross section (N2)” value was determined as 283.3 Å².

With `CCCCC/C=C\C/C=C\CCCCCCCC(=O)O[C@H](COC(=O)CCCCCCCCC/C=C\CCCCCCCC)COP(=O)(O)OC[C@@H](O)CO` [PG(38:3)], the “collision cross section (N2)” value in data set [2] ([M-H]-) is 279.2 Å².

With `CCCCCC/C=C\CCCCCCCC(=O)OC[C@H](COP(=O)(O)O[C@H]1C(O)C(O)C(O)[C@@H](O)C1O)OC(=O)CCCCCCCCC/C=C\CCCCCCCCCC` (stereo not given in full) [PI(38:2)], the “collision cross section (N2)” value in data set [2] ([M+H]+) was determined as 305.1 Å²; in data set [2] ([M+NH4]+), 306 Å²; in data set [2] ([M+Na]+), 303.2 Å²; in data set [2] ([M-H]-) it was 295.2 Å².

For the compound `CCCCC/C=C\C/C=C\C/C=C\CCCCCCC(=O)O[C@H](COC(=O)CCCCCCCCCCCCCCCCCC)COP(=O)(O)O[C@H]1C(O)C(O)C(O)[C@@H](O)C1O` (stereo not given in full) [PI(39:3)], the “collision cross section (N2)” value in data set [2] ([M-H]-) amounted to 296.5 Å².

In the case of `CCCCC/C=C\C/C=C\C/C=C\C/C=C\CCCCCC(=O)O[C@H](COC(=O)CCCCCCCCCCCCCCCC)COP(=O)(O)O[C@H]1C(O)C(O)C(O)[C@@H](O)C1O` (stereo not given in full) [PI(39:4)], in data set [2] ([M-H]-), the “collision cross section (N2)” value worked out at 295 Å².

`CCCCCCCCCCCCCCC[C@@H](O)[C@H](COP(=O)([O-])OCC[N+](C)(C)C)NC(=O)CCCCCCCCCCCCC` [SM(32:0)]: the “collision cross section (N2)” value in data set [2] ([M+H]+) is on record as 278.5 Å².

As for `CCCCC/C=C\CCCCCCCC(=O)OC[C@H](COC(=O)CCCCCCCCCCCCCCCCCC)OC(=O)CCCCCCCCCCCCCCCCCC` [TG(53:1)], the “collision cross section (N2)” value in data set [2] ([M+NH4]+) worked out at 325 Å².

Regarding `CCCCC/C=C\C/C=C\C/C=C\C/C=C\CCCCCC(=O)OC[C@@H](COC(=O)CCCCCCCCCCCC)OC(=O)CCCCCCC/C=C\CCCCCCCCC` [TG(54:5)], the “collision cross section (N2)” value in data set [2] ([M+NH4]+) came to 322.1 Å².

For `CCCCCCCCCC/C=C\CCCCCCCCCC(=O)OC[C@@H](COC(=O)CCCCCCCCCCC)OC(=O)CCCCCCCCCCCCCCCCCCCCC` [TG(56:1)], the “collision cross section (N2)” value in data set [2] ([M+NH4]+) is given as 333.6 Å².

For `CC/C=C\C/C=C\C/C=C\C/C=C\C/C=C\CCCCCC(=O)OC[C@@H](COC(=O)CCCCCCC/C=C\C/C=C\CCCCC)OC(=O)CCCCCC/C=C\C/C=C\C/C=C\CCCCC` [TG(60:10)], the “collision cross section (N2)” value in data set [2] ([M+NH4]+) came to 334.1 Å².

As for `CCCCCCCC/C=C\CCCCCCCC(=O)OC[C@H](COC(=O)CCCCCCCCC/C=C\CCCCCCCCCC)OC(=O)CCCCCCCCC/C=C\CCCCCCCCCC` [TG(62:3)], in data set [2] ([M+NH4]+), the “collision cross section (N2)” value turned out to be 346.8 Å².

With `CCCCC/C=C\C/C=C\C/C=C\C/C=C\CCCCCC(=O)OC[C@@H](COC(=O)CCCCCCC/C=C\CCCCCCCC)OC(=O)CCCCCCCCCCC/C=C\C/C=C\CCCCC` [TG(62:7)], the “collision cross section (N2)” value in data set [2] ([M+NH4]+) is recorded as 343.6 Å².

Take `CC/C=C\C/C=C\C/C=C\C/C=C\C/C=C\CCCCCC(=O)OC[C@@H](COC(=O)CCCC/C=C\C/C=C\C/C=C\C/C=C\CC)OC(=O)CCCCC/C=C\C/C=C\C/C=C\C/C=C\C/C=C\CC` [TG(62:14)]: the “collision cross section (N2)” value in data set [2] ([M+NH4]+) was found to be 332.7 Å².
